Experiments:
[1] = test system: cleavers (Galium aparine); experiment: Herbicidal effect by foliage and soil treatment; format: in vivo; details: 10 g ai/10a, evaluated after 14 days
Method in brief: (§1)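 Seedlings grown in granular soil in a 19–25 °C greenhouse to the cotyledon–two-leaf stage were sprayed over foliage and soil with compound in Tween 20/water at a set application rate. Growth was scored on a rating scale against untreated plants after 14 days.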

[2] = test system: velvetleaf (Abutilon theophrasti); experiment: Herbicidal effect by foliage and soil treatment; format: in vivo; details: 10 g ai/10a, evaluated after 14 days
Method in brief: as §1

[3] = test system: common blackjack (Bidens pilosa); experiment: Herbicidal effect by foliage and soil treatment; format: in vivo; details: 10 g ai/10a, evaluated after 14 days
Method in brief: as §1

[4] = test system: kediock (Sinapis arvensis); experiment: Herbicidal effect by foliage and soil treatment; format: in vivo; details: 10 g ai/10a, evaluated after 14 days
Method in brief: as §1

[5] = test system: wild chamomile (Matricaria chamomilla); experiment: Herbicidal effect by foliage and soil treatment; format: in vivo; details: 10 g ai/10a, evaluated after 14 days
Method in brief: as §1

[6] = test system: common chickweed (Stellaria media); experiment: Herbicidal effect by foliage and soil treatment; format: in vivo; details: 10 g ai/10a, evaluated after 14 days
Method in brief: as §1

[7] = test system: ivyleafspeedwell (Veronica hederaefolia); experiment: Herbicidal effect by foliage and soil treatment; format: in vivo; details: 10 g ai/10a, evaluated after 14 days
Method in brief: as §1

[8] = test system: black nightshade (Solanum nigrum); experiment: Herbicidal effect by foliage and soil treatment; format: in vivo; details: 10 g ai/10a, evaluated after 14 days
Method in brief: as §1

[9] = test system: redroot pigweed (Amaranthus retroflexus); experiment: Herbicidal effect by foliage and soil treatment; format: in vivo; details: 10 g ai/10a, evaluated after 14 days
Method in brief: as §1

[10] = test system: field bindweed (Convolvulus arvensis); experiment: Herbicidal effect by foliage and soil treatment; format: in vivo; details: 10 g ai/10a, evaluated after 14 days
Method in brief: as §1

[11] = test system: sicklepod (Cassia obtusifolia); experiment: Herbicidal effect by foliage and soil treatment; format: in vivo; details: 10 g ai/10a, evaluated after 14 days
Method in brief: as §1

Compound	herbicidal activity rating, GA (Galium aparine) [1]	herbicidal activity rating, AT (Abutilon theophrasti) [2]	herbicidal activity rating, BP (Bidens pilosa) [3]	herbicidal activity rating, SA (Sinapis arvensis) [4]	herbicidal activity rating, MC (Matricaria chamomilla) [5]	herbicidal activity rating, SM (Stellaria media) [6]	herbicidal activity rating, VH (Veronica hederaefolia) [7]	herbicidal activity rating, SN (Solanum nigrum) [8]	herbicidal activity rating, AR (Amaranthus retroflexus) [9]	herbicidal activity rating, CA (Convolvulus arvensis) [10]	herbicidal activity rating, CO (Cassia obtusifolia) [11]	melting point
CCS(=O)(=O)CCNC(=O)c1cc(OC)cc(Oc2cccc(C(F)(F)F)c2)n1 [Compound I-68, N-{2-(ethylsulfonyl)ethyl}-4-methoxy-6-{3-(trifluoromethyl)phenoxy}-2-pyridine carboxamide]	5 (percentage of weeds killed was not less than 80%)	5 (percentage of weeds killed was not less than 80%)	4 (percentage of weeds killed was not less than 60% and less than 80%)	5 (percentage of weeds killed was not less than 80%)	2 (percentage of weeds killed was not less than 20% and less than 40%)	4 (percentage of weeds killed was not less than 60% and less than 80%)	5 (percentage of weeds killed was not less than 80%)	5 (percentage of weeds killed was not less than 80%)	5 (percentage of weeds killed was not less than 80%)	4 (percentage of weeds killed was not less than 60% and less than 80%)	5 (percentage of weeds killed was not less than 80%)	92 to 94 °C
CC[S+]([O-])CCNC(=O)c1cc(OC)cc(Oc2cccc(C(F)(F)F)c2)n1 (stereo not shown) [Compound I-69, N-{2-(ethylsulfinyl)ethyl}-4-methoxy-6-{3-(trifluoromethyl)phenoxy}-2-pyridine carboxamide]	5 (percentage of weeds killed was not less than 80%)	5 (percentage of weeds killed was not less than 80%)	3 (percentage of weeds killed was not less than 40% and less than 60%)	5 (percentage of weeds killed was not less than 80%)	3 (percentage of weeds killed was not less than 40% and less than 60%)	4 (percentage of weeds killed was not less than 60% and less than 80%)	5 (percentage of weeds killed was not less than 80%)	5 (percentage of weeds killed was not less than 80%)	5 (percentage of weeds killed was not less than 80%)	4 (percentage of weeds killed was not less than 60% and less than 80%)	5 (percentage of weeds killed was not less than 80%)	77 to 79 °C
COc1cc(Oc2cccc(C(F)(F)F)c2)nc(C(=O)NCC#N)c1 [Compound I-84, N-{(2-cyano)methyl}-4-methoxy-6-{3-(trifluoromethyl)phenoxy}-2-pyridine carboxamide]	5 (percentage of weeds killed was not less than 80%)	5 (percentage of weeds killed was not less than 80%)	5 (percentage of weeds killed was not less than 80%)	5 (percentage of weeds killed was not less than 80%)	2 (percentage of weeds killed was not less than 20% and less than 40%)	4 (percentage of weeds killed was not less than 60% and less than 80%)	5 (percentage of weeds killed was not less than 80%)	5 (percentage of weeds killed was not less than 80%)	5 (percentage of weeds killed was not less than 80%)	4 (percentage of weeds killed was not less than 60% and less than 80%)	5 (percentage of weeds killed was not less than 80%)	
CNC(=O)c1cc(OC)cc(Oc2cccc(C(F)(F)F)c2)n1 [Compound I-46]	5 (percentage of weeds killed was not less than 80%)	4 (percentage of weeds killed was not less than 60% and less than 80%)	3 (percentage of weeds killed was not less than 40% and less than 60%)	5 (percentage of weeds killed was not less than 80%)	3 (percentage of weeds killed was not less than 40% and less than 60%)	5 (percentage of weeds killed was not less than 80%)	5 (percentage of weeds killed was not less than 80%)	5 (percentage of weeds killed was not less than 80%)	5 (percentage of weeds killed was not less than 80%)	5 (percentage of weeds killed was not less than 80%)	5 (percentage of weeds killed was not less than 80%)	

Reference: US6339045B1, “N-(unsubstituted or substituted)-4-substituted-6-(unsubstituted or substituted)phenoxy-2-pyridinecarboxamides or thiocarboxamides, processes for producing the same, and herbicides” (Kureha Kagaku Kogyo Kabushiki Kaisha, priority 1995, dated 2002)
